The text below walks through data of patent publication US6458793B1, “Heterocyclic derivatives which inhibit factor Xa” (Zeneca Limited, priority 1997, dated 2002).

Molecules are shown by their SMILES.

Compound `O=C(c1ccc(-c2ccncc2)nc1)N1CCN(S(=O)(=O)c2ccc3cc(Br)ccc3c2)CC1` (hydrate or solvate) [Example 1, 1-(6-bromonaphth-2-ylsulphonyl)-4-[6-(4-pyridyl)-nicotinoyl]piperazine] came in with a melting point of 193.5 °C.
